Values after ≈ are worked out from the molar mass of the structure shown.
Key:
[1] = physchem; conditions: USP phosphate buffer (pH 6.8), pH 6.8, aqueous buffer, kinetic from dmso stock
[2] = Solubility test with polymers (Example 24); conditions: USP phosphate buffer (pH 6.8), pH 6.8, aqueous buffer, kinetic from dmso stock, after 5 min

CNC(=O)c1ccc(N2C(=S)N(c3ccc(C#N)c(C(F)(F)F)c3)C(=O)C2(C)C)cc1F [enzalutamide, 4-{3-[4-cyano-3-(trifluoromethyl)phenyl]-5,5-dimethyl-4-oxo-2-sulfanylideneimidazolidin-1-yl}-2-fluoro-N-methylbenzamide]
solubility at 5 min [1]: 31.1 µg/mL (≈ 67 µM)
solubility at 5 min ([2]; with copolyvidone): 47.4 µg/mL (≈ 102 µM)
solubility at 5 min ([2]; with hydroxypropylmethylcellulose 2910 (TC-5E)): 42.7 µg/mL (≈ 91.9 µM)
solubility at 5 min ([2]; with hydroxypropylmethylcellulose 2910 (TC-5R)): 39.2 µg/mL (≈ 84.4 µM)
solubility at 5 min ([2]; with polyvinylpyrrolidone): 40.1 µg/mL (≈ 86.3 µM)
solubility at 5 min ([2]; without polymer): 29 µg/mL (≈ 62.4 µM)
